Key:
Type in all cases: cell-based
[1] = test system: ETBR protein expression; assay: Western blot of ETBR protein expression in vascular smooth muscle cells; conditions: 100 μg/ml, 48 hrs
Protocol: The smooth muscle cells (5×10^5 cells in 35 mm culture dish) were treated with Sal-B and its analogs for 48 hrs, and then a proteinase inhibitor solution was used to collect proteins from the cells.
The protein concentrations in the samples were calculated by using BSA as the standards to construct a standard curve. After mixing Bradford Protein assay reagent evenly with the standards or the samples, the OD595 absorption values were measured. Standard curve was constructed by plotting OD595 values of the BSA standards versus their concentrations. The protein concentrations of the samples were calculated from the standard curve.
Bio-Rad's Mini-Protean III Dual Slab Cell instrument was used. A 12% polyacrylamide separating gel solution was prepared and placed into a electrophoretic gel preparation device. Deionized water was added to flat the surface of the separating gel solution, and the water was poured off after the gel had coagulated. A stacking gel solution containing 5% polyacrylamide was added and then a comb was inserted. The comb was removed after the stacking gel had coagulated, and the gel was placed into an upright electrophoresis tank. A suitable amount of running buffer was added, and then the protein samples were loaded into the wells of stacking gel layer. […]

[2] = test system: Vascular smooth muscle cells (cell line A10); assay: MTT cell viability / observation of normal vascular smooth muscle cells (A10); conditions: A10 cells, drug concentration 0.2 mM, 48 hrs, MTT
Protocol: (§1) The cells (1×10^5 cells/well in 24-well plates) were cultured for 24 hrs. Different concentrations of Sal-B and its analogs (0, 50, 100, 150, 200, 250 μg/ml) were added to treat the cells. After treating for 48 hrs, 100 μl MTT solution was added to each well, and the plate was placed in an incubator for 1-4 hrs. After adding 400 μl DMSO to treat the cells for 30 min., 200 μl samples were collected and placed in a 96-well plate to conduct the absorption measurement at 550 nm.
(§2) Cell viability testing (MTT testing) was employed to determine the cytotoxicity of Sal-B and EBA to vascular smooth muscle cells. Vascular smooth muscle cells (cell line A10) were treated with Sal-B and EBA at concentrations of 0, 0.1, 0.2, 0.3, 0.4, and 0.5 mM. After treating for 48 hrs, MTT was added and allowed to react for 3 hrs at 37° C. Then, DMSO was added and allowed to react for 30 min., after that, the OD570 absorption values were measured. Cell viability was still 90% when the drug concentration reached 0.2 mM.
(§3) Sal-B's analogs, compounds A to F, were dissolved in DMSO, and then added to A10 cells to observe the results.

[3] = test system: ETAR gene expression in MCF-7 cells; assay: PCR of ETAR gene expression in MCF-7 cancer cells; conditions: 48 hrs
Protocol: PC-3 and MCF-7 cancer cells were treated with Sal-B and EBA for 48 hrs, and the identical concentrations of cellular whole RNA were sampled for the synthesis of cDNA by using reverse transcriptase. The PCR method was then used to compare the amounts of endothelin receptor mRNA expression. While the PC-3 cells were treated with either Sal-B or EBA, its ETAR gene expression was not reduced.

[4] = MTT cell viability, nasopharyngeal cancer cells; conditions: human, Hone-1 nasopharyngeal cancer cells, 48 hrs, MTT
Protocol: as §1
(§4) Cancer cells were treated with Sal-B and EBA at concentrations of 0, 0.1, 0.2, 0.3, 0.4, 0.5 mM. After treating for 48 hrs, MTT was added, and then allowed to react for 3 hrs at 37° C. After that, DMSO was added and allowed to react for 30 min., the OD570 absorption values were measured. Cell viability was above 80% when nasopharyngeal cancer cells (Hone-1) were treated with […] Sal-B and EBA. […] But the cell viability remained above 70% for treating with 0.1 mM and 0.2 mM EBA. Similar results were obtained when prostate cancer cells (PC-3) were treated with the drugs: Cell viability was above 80% for treating PC-3 cells with 0.2 mM Sal-B or EBA.

[5] = test system: nasopharyngeal cancer cells (Hone-1); assay: MTT cell viability, nasopharyngeal cancer cells; conditions: Hone-1 cells, summary statement
Protocol: as §1, §4

[6] = MTT cell viability / observation of normal vascular smooth muscle cells (A10); conditions: rat, A10 cells, drug concentration 0.2 mM, MTT
Protocol: as §1, §2, §3

[7] = MTT cell viability, prostate cancer cells; conditions: human, PC-3 prostate cancer cells; PC-3, 0.2 mM, 48 hrs, MTT
Protocol: as §1, §4
MTT testing was employed to observe the viability of cancer cells after treating with Sal-B and the six synthetic analogs.

Row | Molecule | ETBR protein expression compared with control [1] | Cell viability [2] [%] | ETAR gene (mRNA) expression [3] | viability at 48 h, 0.05 mM ([4]; Hone-1, 0.05 mM) [%] | viability at 48 h ([4]; Hone-1, 0.1 mM and 0.2 mM) [%] | Inhibition of growth of Hone-1 cells [5] | viability at 48 h, 0.2 mM [6] [%] | viability at 48 h, 0.2 mM [7] [%]
1 | epiblechnic acid [EBA] | no effect on ETBR protein expression | 90 | reduced significantly | – | – | – | – | –
2 | O=C(/C=C/c1ccc(O)c2c1[C@H](C(=O)O[C@H](Cc1ccc(O)c(O)c1)C(=O)[O-])[C@@H](c1ccc(O)c(O)c1)O2)O[C@H](Cc1ccc(O)c(O)c1)C(=O)[O-].[Mg+2] [Sal-B, magnesium lithospermate B] | no effect on ETBR protein expression | – | can reduce the expression of ETAR mRNA | > 80 | ~60 | significantly inhibit the growth | 90 | > 80

— patent US8080582B2, “Derivatives of 8-epiblechnic acid and their effects on down-regulation of endothelin (ETA) receptor mRNA” (ScinoPharm Taiwan Ltd., priority 2008, dated 2011)
